PMC7412065, “In Vitro Antimicrobial and Antiproliferative Activities of the Root Bark Extract and Isolated Chemical Constituents of Zanthoxylum paracanthum Kokwaro (Rutaceae)” (Plants, 2020)
≈ marks a conversion by molar mass, not a printed value. Read-outs that look alike come from different tables or passages of the source.

Assays:
[1] = tested on: methicillin resistant Staphylococcus aureus (MRSA), un-typed isolate; assay: Broth dilution MIC against MRSA; format: cell-based; details: for MIC: Staphylococcus aureus, MRSA, read-out: Antimicrobial minimal inhibition concentration (MIC), MRSA; for MIC / Antimicrobial minimal inhibition concentration (MIC), MRSA: 24 h; for Growth inhibition of MRSA (in words): up to 1000 µg/mL
[2] = tested on: Staphylococcus aureus (ATCC 29213); assay: Broth dilution MIC against S. aureus; format: cell-based; details: for MIC: Staphylococcus aureus, ATCC29213, 24 h, read-out: Antimicrobial minimal inhibition concentration (MIC), S. aureus
[3] = tested on: Escherichia coli (ATCC 25922); assay: Broth dilution MIC against E. coli; format: cell-based; details: for MIC: Escherichia coli, read-out: Antimicrobial minimal inhibition concentration (MIC), E. coli
[4] = MTT cytotoxicity assay, normal cell line; details: African green monkey
[5] = tested on: human breast cancer cell line (HCC 1395); assay: MTT antiproliferative assay, breast cancer cells; format: cell-based; details: for IC50: Homo sapiens; for Selectivity Indexes HCC 1395: SI = CC50 (Vero E6) / IC50 (HCC 1395)
[6] = tested on: MRSA; design: method as in PMID 22864735; details: compound isolated from Zanthoxylum rhetsa roots; cited from earlier work
[7] = tested on: E. coli; design: method as in PMID 22864735; details: compound isolated from Zanthoxylum rhetsa roots; cited from earlier work
[8] = tested on: Candida albicans (ATCC 10231); assay: Broth dilution MIC against C. albicans; format: cell-based; details: for MIC: Candida albicans, read-out: Antimicrobial minimal inhibition concentration (MIC), C. albicans; for Growth inhibition of C. albicans (in words): up to 1000 µg/mL
[9] = tested on: human prostate cancer cell line (DU 145); assay: MTT antiproliferative assay, prostate cancer cells; format: cell-based; details: for IC50: Homo sapiens; for Selectivity Indexes DU 145: SI = CC50 (Vero E6) / IC50 (DU 145)
[10] = tested on: Clostridium sporogenes; design: method as in PMID 25546028; details: cited from earlier work
[11] = tested on: Streptococcus pyogenes; design: method as in PMID 25546028; details: cited from earlier work
[12] = in vitro; details: African green monkey
[13] = ATCC 29213, broth two-fold dilution, 37 °C, 24 h
[14] = ATCC25922, ATCC 25922, broth two-fold dilution, 37 °C, 24 h
[15] = HCC1395, MTT assay, Mean ± SEM, triplicate, read-out: IC50 Cancerous Cell Lines HCC 1395
[16] = ATCC10231, ATCC 10231, broth two-fold dilution, 30 °C, 72 h
[17] = DU-145, MTT assay, Mean ± SEM, triplicate, read-out: IC50 Cancerous Cell Lines DU 145
[18] = Vero E6 cells (normal cell line)

COc1ccc2c(c1OC)C(CC(C)=O)N(C)c1c-2ccc2cc3c(cc12)OCO3 (centres unmarked) [8-acetonyldihydrochelerythrine (4), 8-acetonyldihydrochelerythrine]
MIC [1]: 31.2 µg/mL (≈ 77.1 µM) | MIC [2, 13]: 15.6 µg/mL (≈ 38.5 µM) | MIC [3, 14]: 15.6 µg/mL (≈ 38.5 µM) | CC50 at 48 h [4]: 47.8 ± 1.15 µg/mL (≈ 118 µM) | IC50 [5, 15]: 9.99 ± 0.6 µg/mL (≈ 24.6 µM) | Selectivity Indexes HCC 1395 [5]: 4.79 | MIC against MRSA [6]: 8 µg/mL (≈ 19.7 µM) | MIC against E. coli [7]: 16 µg/mL (≈ 39.5 µM) | MIC [8, 16]: 62.5 µg/mL (≈ 154 µM) | IC50 [9, 17]: 66.82 ± 0.58 µg/mL (≈ 165 µM) | Selectivity Indexes DU 145 [9]: 0.72

COc1ccc2c(c1OC)c(=O)n(C)c1c3cc4c(cc3ccc21)OCO4 [8-oxochelerythrine (8), 8-oxochelerythrine]
MIC ([1]; broth two-fold dilution, 37 °C): 62.5 µg/mL (≈ 172 µM) | Antimicrobial minimal inhibition concentration (MIC), MRSA ([1]; broth two-fold dilution, 37 °C): 62.50 µg/mL | MIC against Clostridium sporogenes [10]: 0.91 µM (≈ 0.331 µg/mL) | MIC [3, 14]: 3.91 µg/mL (≈ 10.8 µM) | CC50 at 48 h [4, 18]: 135.32 ± 0.12 µg/mL (≈ 372 µM) | IC50 [5, 15]: 14.1 ± 0.3 µg/mL (≈ 38.8 µM) | Selectivity Indexes HCC 1395 [5]: 9.60 | MIC against Streptococcus pyogenes [11]: 3.64 µM (≈ 1.32 µg/mL) | MIC [8, 16]: 15.6 µg/mL (≈ 43 µM) | IC50 [9, 17]: 63.4 ± 1.1 µg/mL (≈ 175 µM) | Selectivity Indexes DU 145 [9]: 2.13

COc1ccc2c(c1)c1ccnc3ccc(=O)n2c31 [10-methoxycanthin-6-one (6), 10-methoxycanthin-6-one]
MIC ([1]; broth two-fold dilution, 37 °C): 3.91 µg/mL (≈ 15.6 µM) | MIC [2, 13]: 1.95 µg/mL (≈ 7.79 µM) | MIC [3, 14]: 3.91 µg/mL (≈ 15.6 µM) | CC50 at 48 h [4, 18]: 53.95 ± 0.38 µg/mL (≈ 216 µM) | IC50 [5, 15]: 14.7 ± 0.5 µg/mL (≈ 58.7 µM) | Selectivity Indexes HCC 1395 [5]: 3.67 | MIC [8, 16]: 7.81 µg/mL (≈ 31.2 µM) | IC50 [9, 17]: 1.58 µg/mL (≈ 6.31 µM) | Selectivity Indexes DU 145 [9]: 34.15

COc1cccc2c1C(=O)c1c(O)c3c(c(O)c1C2=O)C[C@@](O)(C(=O)CO)C[C@@H]3O[C@H]1C[C@H](N)[C@H](O)[C@H](C)O1 [Doxorubicin, reference compound]
IC50 [5, 15]: 0.21 ± 0.2 µg/mL (≈ 0.386 µM) | Selectivity Indexes HCC 1395 [5]: 1.41 | CC50 at 48 h [12]: 0.3 ± 0.12 µg/mL (≈ 0.552 µM) | IC50 [9, 17]: 0.59 ± 0.01 µg/mL (≈ 1.09 µM) | Selectivity Indexes DU 145 [9]: 0.51

OC(Cn1cncn1)(Cn1cncn1)c1ccc(F)cc1F [Fluconazole, reference compound]
MIC [8, 16]: 1.95 µg/mL (≈ 6.37 µM)

O=c1ccc2nccc3c4ccccc4n1c23 [canthin-6-one (7), canthin-6-one]
MIC ([1]; broth two-fold dilution, 37 °C): 0.97 µg/mL (≈ 4.4 µM) | Antimicrobial minimal inhibition concentration (MIC), MRSA ([1]; broth two-fold dilution, 37 °C): 0.98 µg/mL | Antimicrobial minimal inhibition concentration (MIC), S. aureus [2, 13]: 0.49 µg/mL | MIC [2, 13]: 0.48 µg/mL (≈ 2.18 µM) | MIC [3, 14]: 1.95 µg/mL (≈ 8.85 µM) | CC50 at 48 h [4, 18]: 41.8 ± 0.64 µg/mL (≈ 190 µM) | IC50 [5, 15]: 8.12 ± 0.6 µg/mL (≈ 36.9 µM) | Selectivity Indexes HCC 1395 [5]: 5.15 | MIC [8, 16]: 3.91 µg/mL (≈ 17.8 µM) | IC50 [9, 17]: 9.43 ± 0.01 µg/mL (≈ 42.8 µM) | Selectivity Indexes DU 145 [9]: 4.43

CCCCCCCCCCCCCC(=O)O [myristic acid (1), myristic acid]
MIC ([1]; broth two-fold dilution, 37 °C): > 1000 µg/mL | MIC [2, 13]: > 1000 µg/mL | MIC [3, 14]: > 1000 µg/mL | CC50 at 48 h [4, 18]: 64.86 ± 0.51 µg/mL (≈ 284 µM) | IC50 [5, 15]: 57.7 ± 1.2 µg/mL (≈ 253 µM) | Selectivity Indexes HCC 1395 [5]: 1.12 | MIC [8, 16]: > 1000 µg/mL | IC50 [9, 17]: 80.24 ± 0.12 µg/mL (≈ 351 µM) | Selectivity Indexes DU 145 [9]: 0.81

c1cc2c(cc1[C@H]1OC[C@H]3[C@@H]1CO[C@@H]3c1ccc3c(c1)OCO3)OCO2 [sesamin (3), sesamin]
MIC ([1]; broth two-fold dilution, 37 °C): > 1000 µg/mL | Growth inhibition of MRSA (in words) [1]: no activity | MIC [2, 13]: 500 µg/mL (≈ 1410 µM) | MIC [3, 14]: > 1000 µg/mL | Growth inhibition of E. coli (in words) ([3]; up to 1000 µg/mL): no activity | IC50 [5, 15]: 3.39 ± 1 µg/mL (≈ 9.57 µM) | Selectivity Indexes HCC 1395 [5]: 39.97 | CC50 at 48 h [12]: 135.31 ± 0.12 µg/mL (≈ 382 µM) | MIC [8, 16]: > 1000 µg/mL | Growth inhibition of C. albicans (in words) [8]: no activity | IC50 [9, 17]: 115.06 ± 0.03 µg/mL (≈ 325 µM) | Selectivity Indexes DU 145 [9]: 1.18

CC[C@H](/C=C/[C@@H](C)[C@H]1CC[C@H]2[C@@H]3CC=C4C[C@@H](O)CC[C@]4(C)[C@H]3CC[C@]12C)C(C)C [stigmasterol (2), stigmasterol]
MIC [1]: > 1000 µg/mL | Growth inhibition of MRSA (in words) [1]: did not inhibit the growth | MIC [2]: 62.5 µg/mL (≈ 151 µM) | MIC ([3]; ATCC25922, 24 h): 15.6 µg/mL (≈ 37.9 µM) | CC50 at 48 h [4]: 124 µg/mL (≈ 300 µM) | IC50 ([5]; HCC1395, read-out: IC50 Cancerous Cell Lines HCC 1395): 0.42 ± 0.1 µg/mL (≈ 1.02 µM) | Selectivity Indexes HCC 1395 [5]: 294.94 | MIC ([8]; ATCC10231, 72 h): > 1000 µg/mL | Growth inhibition of C. albicans (in words) [8]: did not inhibit the growth | IC50 ([9]; DU-145, read-out: IC50 Cancerous Cell Lines DU 145): 140.5 ± 1.27 µg/mL (≈ 340 µM) | Selectivity Indexes DU 145 [9]: 0.88

Omacilin [reference compound]
Antimicrobial minimal inhibition concentration (MIC), MRSA ([1]; broth two-fold dilution, 37 °C): 0.98 µg/mL | Antimicrobial minimal inhibition concentration (MIC), S. aureus [2, 13]: 0.49 µg/mL | Antimicrobial minimal inhibition concentration (MIC), E. coli ([3]; ATCC 25922, broth two-fold dilution, 37 °C, 24 h): 0.98 µg/mL
